{
  "source": "patent US9434684B2",
  "about": "“Oxime-substituted amide compound and pest control agent” (Nissan Chemical Industries, Ltd., priority 2012, dated 2016)",
  "key": {"Botrytis cinerea [1]": {"tested_on": "Botrytis cinerea", "experiment": "Preventive effect against cucumber gray mold (mycelium inoculation)", "type": "in vivo", "conditions": "48 h, 100 ppm solution (*), 2 days"}, "[2]": {"tested_on": "Phaeosphaeria nodorum (synonym: Septoria nodorum)", "experiment": "Preventive effect against wheat glume blotch", "type": "in vivo", "conditions": "Parastagonospora nodorum, 192 h, 100 ppm solution (*), 2 + 6 days"}, "Botrytis cinerea [3]": {"tested_on": "Botrytis cinerea", "experiment": "Preventive effect against cucumber gray mold (spore inoculation)", "type": "in vivo", "conditions": "72 h, cucumber leaves, 100 ppm solution (*), 3 days"}, "Sclerotinia sclerotiorum": {"tested_on": "Sclerotinia sclerotiorum", "experiment": "Preventive effect against cucumber stem rot", "type": "in vivo", "conditions": "48 h, 100 ppm solution (*), 2 days"}},
  "data": [
    {"smiles": "CC(C)O/N=C(/CNC(=O)c1ccccc1C(F)(F)F)c1ncc(C(F)(F)F)cc1Cl", "note": "[Compound No. 2-020, (Z)—N-[2-[3-chloro-5-(trifluoromethyl)pyridin-2-yl]-2-(isopropoxyimino)ethyl]-2-(trifluoromethyl)benzamide]", "values": [
      {"measurement": "pest or weed control at 100 ppm", "setting": "Botrytis cinerea [1]", "result": "≥ 70", "unit": "%"},
      {"measurement": "pest or weed control at 100 ppm", "setting": "[2]", "result": "≥ 70", "unit": "%"},
      {"measurement": "pest or weed control at 100 ppm", "setting": "Botrytis cinerea [3]", "result": "≥ 70", "unit": "%"},
      {"measurement": "pest or weed control at 100 ppm", "setting": "Sclerotinia sclerotiorum", "result": "≥ 70", "unit": "%"},
      {"measurement": "melting point", "result": "97 to 98", "unit": "°C"}
    ]}
  ]
}
